Reference: patent US8404619B2, “Particulate plant treatment composition” (Maruo Calcium Company Limited, priority 2005, dated 2013)

Experiments:
Format in all cases: in vivo
grape tree (Pione) = test: reducing fruit-cracking and improving fruit quality, spray on grape tree
Experimental: The effects of a quality improver in reducing fruit-cracking and improving fruit quality were evaluated using a grape tree (Pione). That is, the quality improver of Example 1 was sprayed on the grape tree at the polyvalent metal concentrations shown in Table 8 over four times from early July (two-week interval). Each treatment was conducted on each branch by spraying with a backpack sprayer.
The evaluation was carried out on 20 randomly selected clusters. The number of fruit-cracking was expressed as the number of grains with cracking in a cluster examined. The degree of fruit coloring was expressed using a color chart based on a scale of 0 (poorly colored) to 12 (fully colored). The sugar content was determined using a sugar refractometer. The acidity was expressed as titratable tartaric acid content. The dirt on a fruit surface was evaluated by a ratio of the surface area soiled whitish to the total surface area of the fruit on a scale of 1 to 5 (not soiled=1, slightly soiled=2, a little soiled=3, moderately soiled=4, much soiled=5). The phytotoxicity was evaluated on a scale of 1 to 5 (normal=1, slightly damaged=2, a little damaged=3, moderately damaged=4, much damaged=5).
The examinations were carried out in the same manner as in Application Example 64 except that the quality improvers of Examples 2 to 4, 6 to 7, 12, 14, 17 to 18, and Comparative Examples 1 to 4 were used instead of the quality improver of Example 1.

apple tree (Tsugaru) = test: preventing sunburn, spray on apple tree
Experimental: The effects of a quality improver in preventing sunburn were evaluated using an apple tree (Tsugaru).
That is, the quality improver of Example 1 was sprayed on the apple tree at the polyvalent metal concentrations shown in Table 12 over three times from early July (two-week interval). Each treatment was conducted on each branch by spraying with a backpack sprayer.
The evaluation was carried out on 50 randomly selected fruits. The incidence of sunburn was expressed as a ratio of the number of fruits with sunburn to the total number of fruits examined. The level of sunburn was expressed on a 4-point scale (none=0, mild=1, moderate=2, severe=3) based on a ratio of the sunburn area to the total surface area of the fruit. The fruit with a sunburn level of 2 or 3 was considered as a seriously damaged fruit. The dirt on a fruit surface was evaluated by a ratio of the surface area soiled whitish to the total surface area of the fruit on a scale of 1 to 5 (not soiled=1, slightly soiled=2, a little soiled=3, moderately soiled=4, much soiled=5). The phytotoxicity was evaluated on a scale of 1 to 5 (normal=1, slightly damaged=2, a little damaged=3, moderately damaged=4, much damaged=5).
The examinations were carried out in the same manner as in Application Example 84 except that the quality improvers of Examples 2 to 4, 6 to 7, 12, 14, 17 to 18, and Comparative Examples 1 to 4 were used instead of the quality improver of Example 1.

pear tree (Housui) = test: reducing water core and improving fruit quality, spray on pear tree
Experimental: The effects of a quality improver in reducing water core and improving fruit quality were evaluated using a pear tree (Housui).
That is, the quality improver of Example 1 was sprayed on the pear tree at the polyvalent metal concentrations shown in Table 14 over four times from late April (ten-day interval) and two times from middle July (ten-day interval). Each treatment was conducted on each branch by spraying with a backpack sprayer.
The evaluation was carried out on 30 randomly selected fruits. The degree of water core was evaluated by examining three cross sections of the stalk cavity part, the equatorial part, and the calyx end part of the fruit based on a 4-point scale (none=0, mild=1, moderate=2, severe=3). The result of the evaluation was expressed by the following equation: water core index={(1×the number of fruits with mild water core)+(2×the number of fruits with moderate water core)+(3×the number of fruits with severe water core)}/(the number of fruits examined). The fruit with a water core index of 2 or 3 was considered as a seriously damaged fruit. The ground color of fruit skin was determined using a color chart for Japanese pear based on a scale of 1 (immature) to 6 (overmature). The sugar content was determined using a sugar refractometer. The dirt on a fruit surface was evaluated by a ratio of the surface area soiled whitish to the total surface area of the fruit on a scale of 1 to 5 (not soiled=1, slightly soiled=2, a little soiled=3, moderately soiled=4, much soiled=5). The phytotoxicity was evaluated on a scale of 1 to 5 (normal=1, slightly damaged=2, a little damaged=3, moderately damaged=4, much damaged=5).
The examinations were carried out in the same manner as in Application Example 94 except that the quality improvers of Examples 2 to 4, 6 to 7, 12, 14, 17 to 18, and Comparative Examples 1 to 4 were used instead of the quality improver of Example 1.

Structure (SMILES)	Acidity (grape tree (Pione); polyvalent metal 0.030 wt. %)	Degree of fruit coloring (grape tree (Pione); polyvalent metal 0.030 wt. %)	Number of fruit-cracking (grape tree (Pione); polyvalent metal 0.030 wt. %)	Phytotoxicity (grape tree (Pione); polyvalent metal 0.030 wt. %)	Sugar content (grape tree (Pione); polyvalent metal 0.030 wt. %)	Acidity (grape tree (Pione); polyvalent metal 0.075 wt. %)	Degree of fruit coloring (grape tree (Pione); polyvalent metal 0.075 wt. %)	Number of fruit-cracking (grape tree (Pione); polyvalent metal 0.075 wt. %)	Phytotoxicity (grape tree (Pione); polyvalent metal 0.075 wt. %)	Sugar content (grape tree (Pione); polyvalent metal 0.075 wt. %)	Incidence of sunburn (apple tree (Tsugaru); polyvalent metal 0.030 wt. %) [%]	Phytotoxicity (apple tree (Tsugaru); polyvalent metal 0.030 wt. %)	Seriously damaged fruit (apple tree (Tsugaru); polyvalent metal 0.030 wt. %) [%]	Incidence of sunburn (apple tree (Tsugaru); polyvalent metal 0.075 wt. %) [%]	Phytotoxicity (apple tree (Tsugaru); polyvalent metal 0.075 wt. %)	Seriously damaged fruit (apple tree (Tsugaru); polyvalent metal 0.075 wt. %) [%]	Ground color (pear tree (Housui); polyvalent metal 0.030 wt. %)	Phytotoxicity (pear tree (Housui); polyvalent metal 0.030 wt. %)	Seriously damaged fruit (pear tree (Housui); polyvalent metal 0.030 wt. %) [%]	Sugar content (pear tree (Housui); polyvalent metal 0.030 wt. %)	further results
[Ca+2].[Cl-].[Cl-] [calcium chloride]	0.63	9.2	4.4	4	18.4	0.66	9.0	4.5	4	18.6	10.0	4	8.0	12.0	4	8.0	3.7	4	30.0	12.8	Water core index (pear tree (Housui); polyvalent metal 0.030 wt. %): 0.97; Ground color (pear tree (Housui); polyvalent metal 0.075 wt. %): 3.5; Phytotoxicity (pear tree (Housui); polyvalent metal 0.075 wt. %): 4; Seriously damaged fruit (pear tree (Housui); polyvalent metal 0.075 wt. %): 26.7%; Sugar content (pear tree (Housui); polyvalent metal 0.075 wt. %): 12.6; Water core index (pear tree (Housui); polyvalent metal 0.075 wt. %): 0.90
O=C[O-].O=C[O-].[Ca+2] [calcium formate]	0.54	9.7	3.9	3	18.9	0.53	9.7	3.6	3	19.3	10.0	3	6.0	10.0	3	6.0	3.6	3	23.3	13.0	Water core index (pear tree (Housui); polyvalent metal 0.030 wt. %): 0.80; Ground color (pear tree (Housui); polyvalent metal 0.075 wt. %): 3.8; Phytotoxicity (pear tree (Housui); polyvalent metal 0.075 wt. %): 3; Seriously damaged fruit (pear tree (Housui); polyvalent metal 0.075 wt. %): 16.7%; Sugar content (pear tree (Housui); polyvalent metal 0.075 wt. %): 13.2; Water core index (pear tree (Housui); polyvalent metal 0.075 wt. %): 0.77
